Assay results from EP0326490B2, “Synthetic peptides and mixtures thereof for detecting HIV antibodies” (ADALTIS INC., priority 1988, dated 2004).
Positions of bridges follow the written chain, without caps; N, C: chain ends. Residues, ends and D or L forms follow the SMILES beside them. No end group written: not given here.

Tests used:
[1] = tested on: HIV-1 positive sera; conditions: cited from earlier work; for HIV-1 positive sera reacting of sera tested: J. Virol. 61, 2639-2641, 1987
[2] = tested on: HIV-1 positive sera; test: ELISA, single peptides identifying HIV-1 positive sera; assay type: binding, human; conditions: single gp41 or gp120 peptide
Protocol: According to this test a peptide or a peptide mixture of the present invention is adsorbed onto the wells of a microtiter plate. The wells are then treated with sera to be tested. After washing, anti-human IgG labeled with peroxidase is added to the wells. The determination of the peroxidase is performed with a corresponding substrate, e.g. with o-phenylene diamine. Also in this procedure the peroxidase can be exchanged by another label, e.g. by a radioactive or fluorescence label.
Each well of the microtiter plate is saturated with 100 µl of a solution containing a peptide or mixture of peptides (5 µg/ml) and left overnight. The wells are emptied and washed twice with a washing buffer (Tris, 0.043M; NaCl, 0.5M;thimerosal, 0.01% w/v; Tween 20, 0.05% v/v; pH 7.4). The wells are then saturated with […] of washing buffer for 1 hr. at 37°C and washed once with the same buffer. Serum samples to be analyzed are diluted with specimen buffer (washing buffer plus casein, 0.05% w/v). The bells are rinsed with washing buffer prior to the addition of the diluted serum sample (0.1 ml). These are left to incubate for 1 hr. at room temperature. The wells are then emptied, washed twice rapidly and then once for two minutes with washing buffer. […] The wells are then emptied and washed twice rapidly with washing buffer and then five times in which the buffer was in contact with the well 2 minutes per washing. The substrate solution (3,3', 5,5'-tetramethylbenzidine, 8 mg per ml of DMSO) is diluted with 100 volumes 0.1 M citrate-acetate buffer, pH 5.6 containing 0.1% v/v of 30% H2O2 and added to each well (0.1 ml per well). After 10 minutes the contents of each well is treated with 0.1 ml 2N H2SO4 and the optical density read at 450 nm. All determinations are done in duplicate.

[3] = Stability of linear and cyclic peptide in coating buffers (HPLC, Ellman's test); assay type: physicochemical
Text: Even though results presented in TABLE 5 clearly show the superiority of cyclic peptides over their linear counterpart in detecting HIV-1-antibodies, that increased sensitivity could have been underestimated because of probable cyclization and polymerization of the linear peptide after solubilization in a carbonate buffer (pH 9.6). That experiment was repeated with the linear 87 and cyclic 87c peptides dissolved in a carbonate buffer (pH 9.6) as before and also in 10% acetic acid (pH 2.7). […] It is believed that cyclization and polymerization also occured in the wells of the microtiter plates although the exact proportion of cyclic peptide bound to the plates versus linear has not been as yet determined.

12-amino acid sequence (600-611): 12-amino acid sequence (600-611) from gp41-(HIV-1), Gnann et al. (GKLICTTAVPWN; Transmembrane protein gp41; UniProt P04578 600-611, looked up, fragment)
HIV-1 infected patients reactive of patients tested ([1]; Gnann et al., J. Infect. Dis. 156, 261-267, 1987, patients from the United States): 131 out of 132
HIV-1 positive sera reacting of sera tested ([1]; Gnann et al.): 22 out of 22
positive sera detected of sera tested ([1]; tests at the Centers for Disease Control, Atlanta): 78 out of 79

88: cyclic peptide, amino acid positions 590-620 of gp41-HIV-1 (QQLLGIWGCSGKLICTTAVPWNASWSNKSLE; disulfide 9-15 (inferred); UniProt P04578 590-620, looked up, fragment) [Peptide 88]
% Positive Sera correctly Idenfitied [2]: 100%

96: cyclic peptide, amino acid positions 604-629 of gp41-HIV-1 (CTTAVPWNASWSNKSLEQIWNHTTWM; also: cyclic peptide, ring not given here; UniProt P04578 604-629, looked up, fragment) [Peptide 96]
% Positive Sera correctly Idenfitied [2]: 100%

CC[C@H](C)[C@H](NC(=O)CNC(=O)[C@H](CC(C)C)NC(=O)[C@H](CC(C)C)NC(=O)[C@H](CCC(N)=O)NC(=O)[C@H](CCC(N)=O)NC(=O)[C@H](CC(=O)O)NC(=O)[C@H](CCCCN)NC(=O)[C@H](CC(C)C)NC(=O)[C@H](Cc1ccc(O)cc1)NC(=O)[C@H](CCCNC(=N)N)NC(=O)[C@H](CCC(=O)O)NC(=O)[C@@H](NC(=O)[C@H](C)NC(=O)[C@H](CC(C)C)NC(=O)[C@@H](NC(=O)[C@@H](N)CCCNC(=N)N)[C@@H](C)CC)C(C)C)C(=O)N[C@@H](Cc1c[nH]c2ccccc12)C(=O)NCC(=O)N[C@@H](CS)C(=O)N[C@@H](CO)C(=O)NCC(=O)N[C@@H](CCCCN)C(=O)N[C@@H](CC(C)C)C(=O)N[C@H](C(=O)N[C@@H](CS)C(=O)N[C@H](C(=O)N[C@H](C(=O)N[C@@H](C)C(=O)N[C@H](C(=O)N1CCC[C@H]1C(=O)N[C@@H](Cc1c[nH]c2ccccc12)C(=O)N[C@@H](CC(N)=O)C(=O)N[C@@H](C)C(=O)N[C@@H](CO)C(=O)O)C(C)C)[C@@H](C)O)[C@@H](C)O)[C@@H](C)CC [Peptide 87] (H-RILAVERYLKDQQLLGIWGCSGKLICTTAVPWNAS-OH)
stability in solution (HPLC, Ellman's test) ([3]; 10% acetic acid (pH 2.7)): remained linear
stability in solution (HPLC analysis) ([3]; carbonate buffer (pH 9.6), room temperature): underwent cyclization and polymerization

H-CGKIEPLGVAPTKAKRRVVQREKR-OH [Peptide 71]
% Positive Sera correctly Idenfitied [2]: 83%

SGKLIC
HIV-1 positive sera reacting of sera tested ([1]; Gnann et al.): not immunoreactive with any of the 22 HIV-1 positive sera tested

SGKLICTTAVPWNAS [short synthetic peptide covering residues 606 to 620 of gp41 (HIV-1)]
specificity (samples correctly identified of samples tested) ([1]; US Patent Appl. No. 120,027): 63/63
sensitivity ([1]; prior-art reports, HIV-1 seropositive samples): 89%
